{"source": "patent US9051245B2", "about": "(UHA MIKAKUTO CO., LTD., priority 2011, dated 2015)", "key": {"[1]": {"tested_on": "HL-60 cells (human myeloid leukemia cells)", "experiment": "Cancer cell growth inhibitory action using HL-60 cells (Cell counting kit-8)", "assay_type": "cell-based", "details": "for IC50: HL-60 cells, 24 hours, read-out: Cell growth inhibition ability (IC50); for Effect of inhibiting the growth of the HL-60 cells compared with resveratrol and E-viniferin: relative to resveratrol and ε-viniferin", "description": "Next, in order to see the effect of each compound to cancer cells, the cancer cell growth inhibitory action using HL-60 cells (human myeloid leukemia cells) was tested.\nAs culturing of cells, one in which 4 mM glutamine (L-glutamine, Sigma-Aldrich, “G8540-100G”) and 10% FBS (fetal bovine serum, Biological Industries, “04-001-1A”) were added to a high nutrient medium […] (Sigma-Aldrich, “R0883”) was used as a culture solution, and then subculture was performed. For a test, a 96-well plate for cell culture (Corning, “3595”) was used. The number of cells was adjusted on the test day in such a manner that the number of the HL-60 cells was 5×10^5 cell/mL, and then seeded in the 96-well plate with 100 μL/well.\nFor the preparation of the samples, each compound was dissolved with DMSO (dimethylsulfoxide, Wako Pure Chemical Industries, “046-21981”), and then the final concentration in the culture solution of the HL-60 cells of the samples was adjusted to be 10 μM, 30 μM, 100 μM, and 300 μM, respectively, and then the test was started.\nFor the detection of the cell growth inhibitory effect, the detection was performed by a MTT method using “Cell counting kit-8” (Dojin Chemical Laboratory, “347-07621”). More specifically, 24 hours after starting the test, 10 μL of the detection liquid of the cell counting kit-8 was added to each well, and then sufficiently stirred. Thereafter, a shading reaction was performed, the absorbance at 450 nm was measured using a plate reader (Biorad Laboratories, “BIO-RAD Model 680”), and then the obtained data were treated. The cell viability is a value obtained by calculation under the conditions where the number of survival cells of the cells treated with the culture solution to which DMSO was added was 100% and the number of survival cells of the cells under the concentration of each compound was defined as a relative value. From the relationship between each sample concentration and the cell viability, the concentration IC50 (50% inhibitory concentration) which inhibits the cell growth by 50% was calculated."}, "[2]": {"experiment": "DPPH radical elimination method (antioxidation)", "details": "for IC50: DPPH radical, 20 minutes, absorbance 520 nm, read-out: Radical capturing ability (IC50); for Antioxidation activity compared with resveratrol: DPPH, relative to resveratrol", "description": "A test of the antioxidation effect of the UHA4002 and 4003 was performed. The test was performed by adopting a DPPH (1,1-diphenyl-2-picrylhydrazyl) radical elimination method. A technique thereof is mentioned below.\nAbout the main experiment method of the DPPH radical elimination method, the test was advanced with reference to a technique described in “Methods for Functional Food Analysis” (Published by Korin Publishing Co., Ltd., edited by Kazuki SHINOHARA, Tateo SUZUKI, and Shuichi KAMINOGAWA, 2000). […] The DPPH reaction liquid was adjusted in such a manner as to be 400 μM DPPH (Sigma-Aldrich “D9132”), 50 mM MES (2-morpholinoethanesulphonic acid, Dojindo Laboratories, “345-01625”), and 75% ethanol. The reaction was performed in a 96-well plate (As One, “1-6776-03”), and 100 μL of the samples and 100 μL of the DPPH reaction liquid were placed, and then mixed. The mixture was allowed to stand still in a shading state for 20 minutes, and then each absorbance at 520 nm was measured with a plate reader.\nThe IC50 refers to a concentration of each sample which is considered to have an ability of eliminating 50% DPPH radical."}, "[3]": {"tested_on": "Bacillus subtilis (NBRC 3134)", "experiment": "Antibacterial paper disc method", "assay_type": "cell-based", "details": "24 hours, read-out: Diameter of inhibition zone; for zone of inhibition at 1000 µM: NBRC3134, added concentration 1 mM; for zone of inhibition at 5000 µM: NBRC3134, added concentration 5 mM; for zone of inhibition at 10000 µM: NBRC3134, added concentration 10 mM", "description": "An assay was performed by a paper disc method for the purpose of confirming the antibacterial action of the UHA4002 and 4003. The paper disc method is a known technique capable of easily investigating the antibacterial activity of a test substance by creating each inhibition zone of the test substance. The assay was performed using, as a fungus body, Bacillus subtilis (NBRC 3134) purchased from National Institute of Technology and Evaluation Biological Resource Center NBRC. For the raise of a fungus body and a culture method thereof, No. 702 which is a culture solution specified by NBRC was adjusted and used. The culture was performed at 37° C. The experiment method of the paper disc method ((Agar) culture solution, Culture method, Test preparation, Test method) was performed in accordance with a BSAC standardization disc sensitivity test method (8th edition). […] As a positive control, chloramphenicol (Wako Pure Chemical Industries, “036-10571”) of an antibacterial component to be used as a pharmaceutical agent was dissolved in DMSO and adjusted and, as a negative control, DMSO was used. The samples thus adjusted were immersed in the paper disc, disposed on an agar medium in which bacillus subtilis was seeded, cultured, and then, after 24 hours later, the measurement of the inhibition zone was performed. The reliability of this example is confirmed from the size of the inhibition zone by chloramphenicol."}, "[4]": {"tested_on": "SCC-4 cells (human oral cancer cells)", "experiment": "Oral cancer cell growth inhibitory action using SCC-4 cells (Cell counting kit-8)", "assay_type": "cell-based", "details": "read-out: Cell growth inhibition ability (IC50)", "description": "For culturing of the SCC-4 cells, a DMEM/F-12 (1:1) culture medium (manufactured by GIBCO) containing 400 ng/mL hydrocortisone (manufactured by Sigma-Aldrich Japan), 1% antibiotic-antimycotic (manufactured by GIBCO), and 10% FBS (Fetal Bovine Serum, manufactured by ATCC) was used. For the test, a collagen I coat 96-well plate for cell culture (manufactured by Japan BD) was used, and SCC-4 cells whose number of cells was adjusted to be 5×10^5 cells/mL were seeded with 100 μL/well. The cells were cultured under the conditions of 37° C. and 5% CO2 for 24 hours, and were used for the test in a confluent state of 80% or higher.\nWith respect to the sample preparation, each compound was dissolved with DMSO, and then prepared in such a manner as to be 0.63 mM, 1.25 mM, 2.5 mM, 5 mM, and 10 mM. The samples were added in such a manner that the final concentration in the SCC-4 cell culture solution was 6.3 μM, 12.5 μM, 25 μM, 50 μM, and 100 μM, and then the test was started. The sample to which an equivalent amount of only DMSO as the solvent was added was used as a negative control.\nThe number of viable cells was quantified by an MTT method using a “Cell counting kit-8” in the same manner as in Example 3, and the concentration IC50 at which the cell growth is inhibited by 50% was calculated."}, "[5]": {"target": "rat intestine derived lipase", "experiment": "Lipase inhibitory action test (Lipase kit S)", "assay_type": "biochemical", "details": "30° C., 10 minutes reaction", "description": "As lipase, one obtained by suspending 100 mg of rat derived intestine acetone powder (manufactured by Sigma-Aldrich Japan) in 1 mL of 100 mM citric acid buffer (pH 6.0), stirring the same at 4° C. for 1 hour, centrifuging the same (at 15000 rpm for 45 minutes at 4° C.) to obtain a supernatant, and then diluting the supernatant by 1500 times was used as a lipase solution.\nWith respect to the sample preparation, those obtained by dissolving each compound with DMSO, and then preparing in such a manner as to be 0.1 mM, 0.5 mM, 1 mM, 2 mM, and 4 mM were used.\nFor measuring the activity, a “Lipase kit S” (Trade name, manufactured by Dainippon Pharmaceutical Co., Ltd.) was used. First, in accordance with a preparation method described in the catalog of the Lipase kit S, a color developing liquid was prepared. Reaction liquids in which 70 μL, of the color developing liquid, 2 μL of an esterase inhibitor, 10 μL of the lipase solution, and 10 μL of the samples (Final concentration: 10 μM, 50 μM, 100 μM, 200 μM, 400 μM, and 1000 μM) were mixed were prepared, preincubated at 30° C. for 5 minutes, and then 8 μl of a substrate solution described in the catalog was added. Then, a reaction was started. After reacting for 10 minutes, 150 μL of a reaction stop liquid prepared in accordance with the preparation method described in the catalog of the Lipase kit S was added to stop the reaction. […]"}, "[6]": {"experiment": "Physicochemical properties: solubility in solvents"}}, "note": "Read-outs that look alike come from different tables or passages of the source."}
{"compound": "Oc1ccc(/C=C/c2cc(O)cc3c2C(c2ccc(O)cc2)Cc2cc(O)cc(O)c2-3)cc1", "note": "(single isomer, unassigned) [UHA 4002]", "values": [{"measurement": "IC50", "setting": "[1]; Homo sapiens", "value": 30, "unit": "µM"}, {"measurement": "Effect of inhibiting the growth of the HL-60 cells compared with resveratrol and E-viniferin", "setting": "[1]", "value": "twice or higher"}, {"measurement": "IC50", "setting": "[2]", "value": 50, "unit": "µM"}, {"measurement": "Antioxidation activity compared with resveratrol", "setting": "[2]", "value": "as high as twice"}, {"measurement": "zone of inhibition at 1000 µM", "setting": "[3]", "value": 8.5, "unit": "mm"}, {"measurement": "zone of inhibition at 5000 µM", "setting": "[3]", "value": 11, "unit": "mm"}, {"measurement": "zone of inhibition at 10000 µM", "setting": "[3]", "value": 13.3, "unit": "mm"}, {"measurement": "IC50", "setting": "[4]", "value": 52.1, "unit": "µM"}, {"measurement": "IC50", "setting": "[5]", "value": 311, "unit": "µM"}, {"measurement": "Solubility", "setting": "[6]; Chloroform", "value": "Poorly soluble"}, {"measurement": "Solubility", "setting": "[6]; DMSO", "value": "Soluble"}, {"measurement": "Solubility", "setting": "[6]; Ethanol", "value": "Soluble"}, {"measurement": "Solubility", "setting": "[6]; Ethyl acetate", "value": "Poorly soluble"}, {"measurement": "Solubility", "setting": "[6]; Methanol", "value": "Soluble"}, {"measurement": "Solubility", "setting": "[6]; Water", "value": "Poorly soluble"}]}
{"compound": "Oc1ccc(/C=C\\c2cc(O)c3c(c2)-c2c(O)cc(O)cc2CC3c2ccc(O)cc2)cc1", "note": "(single isomer, unassigned) [UHA 4003]", "values": [{"measurement": "IC50", "setting": "[1]; Homo sapiens", "value": 30, "unit": "µM"}, {"measurement": "Effect of inhibiting the growth of the HL-60 cells compared with resveratrol and E-viniferin", "setting": "[1]", "value": "twice or higher"}, {"measurement": "IC50", "setting": "[2]", "value": 50, "unit": "µM"}, {"measurement": "Antioxidation activity compared with resveratrol", "setting": "[2]", "value": "as high as twice"}, {"measurement": "zone of inhibition at 1000 µM", "setting": "[3]", "value": 8.3, "unit": "mm"}, {"measurement": "zone of inhibition at 5000 µM", "setting": "[3]", "value": 10.5, "unit": "mm"}, {"measurement": "zone of inhibition at 10000 µM", "setting": "[3]", "value": 11.8, "unit": "mm"}, {"measurement": "IC50", "setting": "[4]", "value": 32.4, "unit": "µM"}, {"measurement": "Solubility", "setting": "[6]; Chloroform", "value": "Poorly soluble"}, {"measurement": "Solubility", "setting": "[6]; DMSO", "value": "Soluble"}, {"measurement": "Solubility", "setting": "[6]; Ethanol", "value": "Soluble"}, {"measurement": "Solubility", "setting": "[6]; Ethyl acetate", "value": "Poorly soluble"}, {"measurement": "Solubility", "setting": "[6]; Methanol", "value": "Soluble"}, {"measurement": "Solubility", "setting": "[6]; Water", "value": "Poorly soluble"}]}
{"compound": "Oc1ccc(/C=C/c2cc(O)cc(O)c2)cc1", "note": "[Resveratrol, trans-resveratrol, reference compound]", "values": [{"measurement": "IC50", "setting": "[1]; Homo sapiens", "value": 80, "unit": "µM"}, {"measurement": "zone of inhibition at 1000 µM", "setting": "[3]", "value": 0, "unit": "mm"}, {"measurement": "zone of inhibition at 5000 µM", "setting": "[3]", "value": 0, "unit": "mm"}, {"measurement": "zone of inhibition at 10000 µM", "setting": "[3]", "value": 0, "unit": "mm"}, {"measurement": "zone of inhibition at 50000 µM", "setting": "[3]; NBRC3134, added concentration 50 mM", "value": 10, "unit": "mm"}, {"measurement": "IC50", "setting": "[4]", "value": "> 100", "unit": "µM"}, {"measurement": "IC50", "setting": "[5]", "value": "> 1000", "unit": "µM"}]}
{"compound": "Oc1ccc(/C=C/c2cc(O)cc3c2[C@@H](c2cc(O)cc(O)c2)[C@H](c2ccc(O)cc2)O3)cc1", "note": "[ε-viniferin, reference compound]", "values": [{"measurement": "IC50", "setting": "[1]", "value": 60, "unit": "µM"}]}
